Test results reported in the NIST ThermoML archive (doi:10.1016/j.tca.2013.08.031).

Assay: molar heat capacity at constant volume
Conditions: Fluid (supercritical or subcritical phases), Vacuum adiabatic calorimetry

CCC(C)O (stereo not given) [butan-2-ol]
Conditions | molar heat capacity at constant volume [J/K/mol]
307.37 K, Mass density=794.06 kg/m3 | 167.81
307.62 K, Mass density=794.06 kg/m3 | 154.62
307.87 K, Mass density=794.06 kg/m3 | 157.58
308.12 K, Mass density=794.06 kg/m3 | 160.7
308.37 K, Mass density=794.06 kg/m3 | 163.88
308.62 K, Mass density=794.06 kg/m3 | 165.44
308.87 K, Mass density=794.06 kg/m3 | 167.74
309.12 K, Mass density=794.06 kg/m3 | 167.81
309.37 K, Mass density=794.06 kg/m3 | 168.4
309.62 K, Mass density=794.06 kg/m3 | 167.22
311.11 K, Mass density=794.06 kg/m3 | 182.78
321.67 K, Mass density=794.06 kg/m3 | 204.87
323.61 K, Mass density=794.06 kg/m3 | 208.36
323.85 K, Mass density=794.06 kg/m3 | 208.87
324.09 K, Mass density=794.06 kg/m3 | 208.06
324.33 K, Mass density=794.06 kg/m3 | 208.8
324.57 K, Mass density=794.06 kg/m3 | 208.8
324.81 K, Mass density=794.06 kg/m3 | 207.99
325.06 K, Mass density=794.06 kg/m3 | 209.76
325.3 K, Mass density=794.06 kg/m3 | 210.43
325.54 K, Mass density=794.06 kg/m3 | 211.25
325.78 K, Mass density=769.05 kg/m3 | 223.77
325.78 K, Mass density=794.06 kg/m3 | 210.73
326.02 K, Mass density=769.05 kg/m3 | 224.88
326.02 K, Mass density=794.06 kg/m3 | 211.32
326.26 K, Mass density=769.05 kg/m3 | 226.22
326.26 K, Mass density=794.06 kg/m3 | 213.03
326.5 K, Mass density=769.05 kg/m3 | 226.29
326.74 K, Mass density=769.05 kg/m3 | 227.11
326.98 K, Mass density=769.05 kg/m3 | 226.59
327.22 K, Mass density=769.05 kg/m3 | 226.59
327.22 K, Mass density=794.06 kg/m3 | 213.54
327.46 K, Mass density=794.06 kg/m3 | 212.51
327.7 K, Mass density=794.06 kg/m3 | 212.8
327.94 K, Mass density=794.06 kg/m3 | 212.73
328.18 K, Mass density=794.06 kg/m3 | 212.43
333.2 K, Mass density=769.05 kg/m3 | 231.33
333.44 K, Mass density=769.05 kg/m3 | 232.45
333.67 K, Mass density=769.05 kg/m3 | 231.78
333.91 K, Mass density=769.05 kg/m3 | 232.59
334.15 K, Mass density=769.05 kg/m3 | 232.82
334.39 K, Mass density=769.05 kg/m3 | 233.04
334.62 K, Mass density=769.05 kg/m3 | 232.82
334.86 K, Mass density=769.05 kg/m3 | 233.63
335.1 K, Mass density=769.05 kg/m3 | 234.15
335.33 K, Mass density=769.05 kg/m3 | 233.41
335.57 K, Mass density=769.05 kg/m3 | 225.63
335.81 K, Mass density=769.05 kg/m3 | 219.55
336.04 K, Mass density=769.05 kg/m3 | 213.77
336.28 K, Mass density=769.05 kg/m3 | 209.39
336.52 K, Mass density=769.05 kg/m3 | 207.32
336.75 K, Mass density=769.05 kg/m3 | 207.02
337.46 K, Mass density=769.05 kg/m3 | 204.72
337.93 K, Mass density=769.05 kg/m3 | 204.8
338.64 K, Mass density=769.05 kg/m3 | 204.35
339.34 K, Mass density=769.05 kg/m3 | 203.76
349.82 K, Mass density=735.98 kg/m3 | 241.34
350.05 K, Mass density=735.98 kg/m3 | 242.01
350.28 K, Mass density=735.98 kg/m3 | 243.56
350.51 K, Mass density=735.98 kg/m3 | 243.19
350.74 K, Mass density=735.98 kg/m3 | 243.49
352.35 K, Mass density=769.05 kg/m3 | 218.36
352.58 K, Mass density=769.05 kg/m3 | 219.99
353.27 K, Mass density=735.98 kg/m3 | 242.23
353.49 K, Mass density=735.98 kg/m3 | 245.19
353.72 K, Mass density=735.98 kg/m3 | 244.68
353.95 K, Mass density=735.98 kg/m3 | 243.34
354.18 K, Mass density=735.98 kg/m3 | 245.12
354.41 K, Mass density=735.98 kg/m3 | 243.86
354.64 K, Mass density=735.98 kg/m3 | 245.56
364.16 K, Mass density=735.98 kg/m3 | 251.2
364.39 K, Mass density=735.98 kg/m3 | 251.35
364.61 K, Mass density=735.98 kg/m3 | 252.01
364.84 K, Mass density=735.98 kg/m3 | 252.16
365.06 K, Mass density=735.98 kg/m3 | 251.79
365.29 K, Mass density=735.98 kg/m3 | 251.79
365.51 K, Mass density=735.98 kg/m3 | 252.01
366.41 K, Mass density=735.98 kg/m3 | 253.2
366.63 K, Mass density=735.98 kg/m3 | 248.46
366.86 K, Mass density=735.98 kg/m3 | 245.27
367.08 K, Mass density=735.98 kg/m3 | 226.44
367.31 K, Mass density=735.98 kg/m3 | 219.84
367.53 K, Mass density=735.98 kg/m3 | 215.18
367.75 K, Mass density=735.98 kg/m3 | 213.69
367.98 K, Mass density=735.98 kg/m3 | 212.88
368.2 K, Mass density=735.98 kg/m3 | 213.25
369.54 K, Mass density=735.98 kg/m3 | 213.69
369.76 K, Mass density=735.98 kg/m3 | 214.43
369.99 K, Mass density=735.98 kg/m3 | 214.66
371.32 K, Mass density=683.53 kg/m3 | 261.13
371.54 K, Mass density=683.53 kg/m3 | 261.43
371.77 K, Mass density=683.53 kg/m3 | 261.72
371.99 K, Mass density=683.53 kg/m3 | 263.06
372.21 K, Mass density=683.53 kg/m3 | 263.95
372.43 K, Mass density=683.53 kg/m3 | 260.76
372.65 K, Mass density=683.53 kg/m3 | 259.87
373.1 K, Mass density=735.98 kg/m3 | 216.29
373.32 K, Mass density=735.98 kg/m3 | 217.25
373.54 K, Mass density=735.98 kg/m3 | 217.99
373.76 K, Mass density=735.98 kg/m3 | 219.7
373.98 K, Mass density=735.98 kg/m3 | 219.03
374.21 K, Mass density=735.98 kg/m3 | 216.66
374.43 K, Mass density=735.98 kg/m3 | 217.4
374.65 K, Mass density=735.98 kg/m3 | 217.47
374.87 K, Mass density=735.98 kg/m3 | 218.51
